# Data from patent publication US11344510B2, “Arylcyclohexylamine derivatives and their use in the treatment of psychiatric disorders” (Gilgamesh Pharmaceuticals, Inc., priority 2019, dated 2022).
# “Also recorded” adds a separate entry of the source. Where two headings read alike, the source gives them in different places.
# Assays:
# [1] = target: MK-801 site of NMDAR (Rattus norvegicus, UniProt P35439); details: read-out: NMDAR Ki ± SEM, from Ebert et al. 1997; cited from earlier work
# [2] = Oral bioavailability in mice, Method A; type: in vivo; details: CD-1 mice; for F: 10 mg/kg; for half-life / Cmax / AUC(0-inf): male, mouse
# Protocol: Animals. Male CD-1 mice were used in these studies Animals were randomly assigned to treatment groups and were fasted for 4 h before dosing.
# Drugs. Test compounds were dissolved in normal saline (ketamine) or de-ionized water (other compounds) and administered intravenously (iv) or orally (po) at a dose of 10 mg/kg (calculated based on freebase) and at a volume of 5 mL/kg body weight. Compounds were tested as the racemates (indicated by “rac” nomenclature) or pure enantiomers (indicated by “R” or “S” nomenclature).
# Sample Collection and Bioanalysis. Blood samples were collected under 2,2,2-tribromoethanol anesthesia (150 mg/kg, ip) from the orbital sinus at 0.083, 0.25, 0.5, 1, 2, 4, 8 and 24 h (4 animals per time point) into microcontainers containing K2EDTA Immediately after collection of blood, mice were euthanized by cervical dislocation and brain samples were collected at the same time points. All samples were immediately processed, flash-frozen, and stored at −70° C. until subsequent analysis. Plasma samples were separated by centrifugation of whole blood and aliquots (50 μL) were mixed with 200 μL of internal standard solution (400 ng/mL in 1:1 v/v CH3CN:MeOH). After mixing by pipetting and centrifuging for 4 min at 6000 rpm, 0.5 μL of each supernatant was analyzed for drug using a fit-for-purpose liquid chromatography-tandem mass spectrometry (LC-MS/MS) method, with authentic samples of each analyte used for calibration and identification. Brain samples (weight 100 mg±1 mg) were dispersed in 500 μL, of internal standard solution (400 ng/mL in 4:1 v/v MeOH:water) using zirconium oxide beads (115 mg±5 mg) in The Bullet Blender® homogenizer for 30 s at speed 8. After homogenization, the samples were centrifuged for 4 min at 14,000 rpm and 0.5 μL of each supernatant was analyzed for drug using a fit-for-purpose LC-MS/MS method, with authentic samples of each analyte used for calibration and identification.
# Data Analysis. The drug concentrations of samples below the lower limit of quantitation (LLOQ) were designated as zero. Pharmacokinetic data analysis was performed using noncompartmental, bolus injection or extravascular input analysis models in WinNonlin 5.2 (PharSight). Data points below LLOQ were presented as missing to improve validity of t112 calculations.
# [3] = HLM stability (High Activity); type: in vitro ADME; details: both sexes, human, liver microsomes, pH 7.4, Condition 2 (High Activity), 1.0 mg protein/mL
# Summary of the method: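 Pooled male and female human liver microsomes, 1.0 mg protein/mL, in 100 mM PBS pH 7.4 with NADPH-regenerating system; compound 1 μM at 37° C, five time points over 60 min. Parent remaining by LC-MS/MS; kel, t1/2 and Clint from linear regression of ln(AUC) versus time.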
# [4] = HLM stability (Low Activity); type: in vitro ADME; details: both sexes, human, liver microsomes, pH 7.4, Condition 1 (Low Activity), 0.42 mg protein/mL
# Protocol: For some of the compounds, stability was tested under two microsomal incubation conditions, one with normal enzymatic activity (low activity) and one with higher enzymatic loading, longer incubation time, and lower compound concentration (high activity) intended to increase metabolic lability.
# HLM Stability (Low Activity). Pooled HLM from adult male and female donors (XenoTech H0630) were used. Microsomal incubations were carried out in 96-well plates in 5 aliquots of 40 μL, each (one for each time point). Liver microsomal incubation medium consisted of PBS (100 mM, pH 7.4), MgCl2 (3.3 mM), NADPH (3 mM), glucose-6-phosphate (5.3 mM), and glucose-6-phosphate dehydrogenase (0.67 units/mL), with 0.42 mg of liver microsomal protein per mL. Control incubations were performed by replacing the NADPH-cofactor system with PBS. Test compounds (2 μM, final solvent concentration 1.6%) were incubated with microsomes at 37° C., shaking at 100 rpm. Incubations were performed in duplicate. Five time points over 40 minutes were analyzed. The reactions were stopped by adding 12 volumes of 90% acetonitrile-water to incubation aliquots, followed by protein sedimentation by centrifugation at 5500 rpm for 3 minutes. Supernatants were analyzed for parent compound remaining using a fit-for-purpose liquid chromatography-tandem mass spectrometry (LC-MS/MS) method, with authentic samples of each analyte used for identity confirmation.
# Data Analysis. The elimination constant (kel), half-life (t1/2) and intrinsic clearance (Clint) were determined in a plot of […] versus time, using linear regression analysis.
# [5] = test system: mice (forced swim test); assay: Forced swim test in mice, 30-minute pre-treatment; type: in vivo, Swiss Webster mice; details: s.c., 30 minutes before test, relative to vehicle
# Protocol: Animals. Male Swiss Webster mice, aged 4-5 weeks (body weight 25-30 g, Envigo) were used in the experiments Animals were housed in groups of 4-5 under controlled temperatures and 12-hour light/dark cycles, with ad libitum food (Teklad 7001 rodent diet) and water. These studies were carried out in strict accordance with the recommendations in the Guide for the Care and Use of Laboratory Animals of the National Institutes of Health. All efforts were made to minimize suffering.
# Drugs and Drug Administration. Imipramine hydrochloride was administered intraperitoneally (i.p.) at a dose of 30 mg/kg. Other compounds were tested as the racemates (indicated by “rac” nomenclature) and were administered subcutaneously (s.c.) as the hydrochloride salts. Normal saline was used as the vehicle and all compounds were administered at a volume of 10 mL/kg, 30 minutes before behavioral testing.
# Forced Swim Test (FST). Group size was n=10 per treatment Animals were acclimated to the testing room 30 minutes prior to behavioral testing. Mice were placed individually in a cylinder of water measuring 5 inches wide by 10 inches tall and maintained at 24-25° C. The activity of each mouse was recorded for 6 minutes using Noldus Ethovision tracking software, with periods of inactivity being automatically quantified.
# Statistical Analysis. The data points shown are the mean±standard error of the mean (SEM). Analysis was performed using GraphPad Prism 6. Indicated statistical comparisons represent the results of unpaired, two-tailed t tests relative to vehicle (not corrected for multiple comparisons).
# [6] = target: MK-801 binding site of the N-methyl-D-aspartate receptor (NMDAR); assay: NMDAR radioligand binding with [3H]MK-801, Method A; parameters: species or system Wistar rat; details: MK-801 site, Method A, Wistar rat brain (minus cerebellum), 5.0 nM [3H]MK-801; read-out: NMDAR Ki ± SEM
# Protocol: Radioligand Binding—Method A. Affinity of the test compounds for NMDAR was determined in radioligand binding experiments with [^3H]MK-801 by Eurofins Panlabs, Inc., using methods adapted from the literature (Javitt et al. 1987; Reynolds et al. 1989) and under the conditions described in Table 12.
# [7] = test system: CSDS-susceptible mice; assay: Behavioral tests after chronic social defeat stress (CSDS); type: in vivo, C57BL/6 mice; details: 10 mg/kg i.p., single dose
# [8] = calculated based on brain exposure
# [9] = brain, 10 mg/kg iv, read-out: t1/2 (iv)
# [10] = brain, 10 mg/kg po, read-out: t1/2 (po)
# [11] = plasma, 10 mg/kg iv, read-out: AUC0-inf (iv) (converted)
# [12] = plasma, 10 mg/kg iv, read-out: t1/2 (iv)
# [13] = plasma, 10 mg/kg po, read-out: AUC0-inf (po) (converted)
# [14] = plasma, 10 mg/kg po, read-out: t1/2 (po)
# [15] = plasma, absolute oral bioavailability
smiles,measurement,setting,value
"CN[C@@]1(c2ccccc2Cl)CCCCC1=O (single isomer, unassigned) [(R)-ketamine, ketamine]",Ki,[1],1400 ± 100 nM
CCNC1(c2cccc(OC)c2)CCCCC1=O (racemic) [Compound 2rac],AUC0-inf (iv),"[2]; brain, 10 mg/kg iv","279,000 ng*min/g"
same,AUC0-inf (po),"[2]; brain, 10 mg/kg po","11,800 ng*min/g"
same,F,[2]; [8],4%
same,half-life,[2]; [9],16.1 min
same,Cmax,"[2]; brain, 10 mg/kg po",420 ng/g
same,half-life,[2]; [10],16.6 min
same,AUC(0-inf),[2]; [11],1100 ng·h/mL
same,half-life,[2]; [12],17.9 min
same,Cmax,"[2]; plasma, 10 mg/kg po",135 ng/mL
same,AUC(0-inf),[2]; [13],62.8 ng·h/mL
same,half-life,[2]; [14],14 min
same,F,[2]; [15],6%
same,half-life at 1 μM,[3],199 min
same,microsomal CLint at 1 μM,[3],3 µL/min/mg
same,half-life at 2 μM,[4],4.85 h
same,microsomal CLint at 2 μM,[4],6 µL/min/mg
same,immobility time in FST,[5],reduced time immobile; also recorded: induced antidepressant-like effects
"CNC1(c2ccccc2F)CCCCC1=O (racemic) [Compound 35rac, 2-(2-Fluorophenyl)-2-(methylamino)cyclohexan-1-one]",Ki,[6],1820 nM
same,AUC0-inf (iv),"[2]; brain, 10 mg/kg iv","186,000 ng*min/g"
same,AUC0-inf (po),"[2]; brain, 10 mg/kg po","34,200 ng*min/g"
same,F,[2]; [8],18%
same,half-life,[2]; [9],16.1 min
same,Cmax,"[2]; brain, 10 mg/kg po",1840 ng/g
same,half-life,[2]; [10],19.1 min
same,AUC(0-inf),[2]; [11],1300 ng·h/mL
same,half-life,[2]; [12],15.1 min
same,Cmax,"[2]; plasma, 10 mg/kg po",618 ng/mL
same,AUC(0-inf),[2]; [13],363 ng·h/mL
same,half-life,[2]; [14],19.7 min
same,F,[2]; [15],28%
same,half-life at 1 μM,[3],148 min
same,microsomal CLint at 1 μM,[3],5 µL/min/mg
same,half-life at 2 μM,[4],2.85 h
same,microsomal CLint at 2 μM,[4],10 µL/min/mg
same,immobility time in FST,[5],did not have effects
same,"antidepressant-like activity in behavioral tests after CSDS (TST, FST, SPT)",[7],superior to 37rac; also recorded: reversed the pro-depressive effects
CNC1(c2ccccc2OC)CCCCC1=O (racemic) [Compound 4rac],Ki,[6],35000 nM
same,AUC0-inf (iv),"[2]; brain, 10 mg/kg iv","292,000 ng*min/g"
same,AUC0-inf (po),"[2]; brain, 10 mg/kg po","135,000 ng*min/g"
same,F,[2]; [8],46%
same,half-life,[2]; [9],19.9 min
same,Cmax,"[2]; brain, 10 mg/kg po",1900 ng/g
same,half-life,[2]; [10],45.9 min
same,AUC(0-inf),[2]; [11],1650 ng·h/mL
same,half-life,[2]; [12],20.6 min
same,Cmax,"[2]; plasma, 10 mg/kg po",958 ng/mL
same,AUC(0-inf),[2]; [13],850 ng·h/mL
same,half-life,[2]; [14],42.6 min
same,F,[2]; [15],51%
same,half-life at 1 μM,[3],819 min
same,microsomal CLint at 1 μM,[3],1 µL/min/mg
same,half-life at 2 μM,[4],43.2 h
same,microsomal CLint at 2 μM,[4],1 µL/min/mg
same,immobility time in FST,[5],did not have effects
"CN[C@]1(c2ccccc2Cl)CCCCC1=O (single isomer, unassigned) [(S)-ketamine, ketamine]",Ki,[1],300 ± 13 nM
